Measurements: patent publication US11439980B2, “Contaminant-activated photocatalysis” (UNIVERSITY OF FLORIDA RESEARCH FOUNDATION, INC., priority 2016, dated 2022)

What was measured:
[1] = Photocatalytic degradation of Mordant Orange on coated tiles under visible light; conditions: MO on anatase coating, N=4
Procedure: (§1) Photocatalytic coating formulation was prepared by adding 10 mg of anatase (A7) to 10 mL of dilute NaOH (pH=9.5) in a 20 mL scintillation vial wrapped with aluminum foil. The suspension was sonicated (Misonix Sonicator 3000, Farmingdale, NY) at the highest power level providing 180-200 W for 30 minutes total (10 min on/2 min off×3). Similarly, rutile (R22) and silica (S15) coating formulations were prepared without exposing to visible light. In case of anatase+PHF, the anatase suspension was sonicated for 30 minutes followed by addition of 1 mL of a PHF solution (1000 or 100 mg/L). The nanocomposites suspension was mixed with a magnetic stirrer for 10 minutes in dark.
(§2) Ceramic tiles were utilized to evaluate the photocatalytic degradation of organic dye and inactivation of microbes. […]
(§3) The photocatalytic experiments were carried out under fluorescent lamps (General Electric model T8 Ultramax F28T8-SPX41) at visible light irradiance of 1.8-2.0 W/m^2. […] The visible light and UVA irradiances were measured with a PMA 2140 Global detector or a PMA 2110 UVA detector attached to a PMA2110 meter (Solar Light Co., Glenside, Pa.).
(§4) The temporal changes in dye concentration were determined by measuring the absorbance after predetermined times of exposure to visible light. The inactivation of S. aureus was evaluated by determining the viable counts after exposure to visible light. […]

[2] = Photocatalytic degradation of Procion Red on coated tiles under visible light; conditions: PR on anatase coating, N=4
Procedure: as §1, §2, §3, §4

| Substance | overall pseudo first order degradation rate [1] [h⁻¹] | overall pseudo first order degradation rate [2] [h⁻¹] |
| --- | --- | --- |
| Mordant Orange | 0.01 | – |
| Procion Red | – | 0.023 |
